{
  "source": "BindingDB's records for doi:10.1021/jm800662z",
  "about": "(Johnson & Johnson Pharmaceutical, 2008)",
  "molecular_target": "T1, Tyrosine-protein kinase JAK3 (Homo sapiens, UniProt P52333)",
  "T1 sequence (P52333 whole entry)": "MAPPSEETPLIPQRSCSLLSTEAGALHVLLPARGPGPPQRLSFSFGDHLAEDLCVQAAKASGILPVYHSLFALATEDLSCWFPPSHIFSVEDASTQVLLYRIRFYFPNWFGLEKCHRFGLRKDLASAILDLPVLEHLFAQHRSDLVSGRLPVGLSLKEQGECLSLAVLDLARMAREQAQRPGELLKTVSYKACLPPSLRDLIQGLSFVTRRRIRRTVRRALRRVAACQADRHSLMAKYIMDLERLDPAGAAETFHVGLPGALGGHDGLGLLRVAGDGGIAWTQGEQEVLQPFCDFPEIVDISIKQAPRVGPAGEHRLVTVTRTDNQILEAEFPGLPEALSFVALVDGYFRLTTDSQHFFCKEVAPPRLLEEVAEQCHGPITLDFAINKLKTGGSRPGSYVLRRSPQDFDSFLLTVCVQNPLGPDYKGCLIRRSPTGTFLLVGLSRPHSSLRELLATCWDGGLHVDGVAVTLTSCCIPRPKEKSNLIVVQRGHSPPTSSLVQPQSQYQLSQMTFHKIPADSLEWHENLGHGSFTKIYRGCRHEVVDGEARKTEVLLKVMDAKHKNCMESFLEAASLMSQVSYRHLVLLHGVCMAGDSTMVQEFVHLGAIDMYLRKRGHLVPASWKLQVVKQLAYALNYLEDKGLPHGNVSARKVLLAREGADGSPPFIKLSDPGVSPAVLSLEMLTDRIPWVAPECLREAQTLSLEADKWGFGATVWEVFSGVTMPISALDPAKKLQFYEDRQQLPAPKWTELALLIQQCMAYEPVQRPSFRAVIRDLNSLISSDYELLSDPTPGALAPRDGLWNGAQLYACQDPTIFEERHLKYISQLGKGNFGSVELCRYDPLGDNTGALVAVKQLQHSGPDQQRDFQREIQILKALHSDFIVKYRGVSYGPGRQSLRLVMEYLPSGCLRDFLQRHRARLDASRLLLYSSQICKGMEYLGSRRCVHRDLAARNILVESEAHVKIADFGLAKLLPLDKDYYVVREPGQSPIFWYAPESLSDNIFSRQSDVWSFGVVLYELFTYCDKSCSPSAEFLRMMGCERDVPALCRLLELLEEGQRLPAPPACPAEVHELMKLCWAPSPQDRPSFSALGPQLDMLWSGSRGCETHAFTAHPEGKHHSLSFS",
  "test": "JAK3 Inhibition Assay",
  "settings": "pH 7.5; 22 °C",
  "procedure": "An ELISA assay was used to determine the ability of inhibitor to inhibit JAK3 […] activity. The compounds were incubated with enzyme, 10 uM ATP, and biotinylated peptide substrate. Phosphorylated tyrosine was then detected by sequential incubation with anti-phosphotyrosine antibody.",
  "data": [
    {"smiles": "O=C1c2ccccc2-c2n[nH]c3cccc1c23", "values": [
      {"measurement": "IC50", "result": 957, "unit": "nM"}
    ]}
  ]
}
